Literature values, collected in US20220096389A1, “PHARMACEUTICAL COMPOSITIONS OF AMORPHOUS SOLID DISPERSIONS AND METHODS OF PREPARATION THEREOF” (Shenzhen Pharmacin Co., Ltd., priority 2020, published 2022).

How the values were obtained:
[1] = molecular target: Human Epidermal Growth Factor Receptor 2 (HER2) (Homo sapiens, UniProt P04626); settings: cited from earlier work
HER4 = HER4 (Homo sapiens, UniProt Q15303); settings: cited from earlier work
[2] = system: EGFR and HER2 autophosphorylation, downstream MAPK and AKT signaling pathways; settings: in vitro; cited from earlier work
[3] = system: EGFR and/or HER2 expressing carcinoma cell lines; settings: in vitro; cited from earlier work
[4] = system: tumor cell lines expressing HER2 and EGFR; settings: oral administration; cited from earlier work
[5] = cited from earlier work; for Measured or Calculated pKas (first value): first value in cell; for Measured or Calculated pKas (second value): second value in cell

Human Epidermal Growth Factor Receptor 2 (HER2), sequence (P04626 23-1255): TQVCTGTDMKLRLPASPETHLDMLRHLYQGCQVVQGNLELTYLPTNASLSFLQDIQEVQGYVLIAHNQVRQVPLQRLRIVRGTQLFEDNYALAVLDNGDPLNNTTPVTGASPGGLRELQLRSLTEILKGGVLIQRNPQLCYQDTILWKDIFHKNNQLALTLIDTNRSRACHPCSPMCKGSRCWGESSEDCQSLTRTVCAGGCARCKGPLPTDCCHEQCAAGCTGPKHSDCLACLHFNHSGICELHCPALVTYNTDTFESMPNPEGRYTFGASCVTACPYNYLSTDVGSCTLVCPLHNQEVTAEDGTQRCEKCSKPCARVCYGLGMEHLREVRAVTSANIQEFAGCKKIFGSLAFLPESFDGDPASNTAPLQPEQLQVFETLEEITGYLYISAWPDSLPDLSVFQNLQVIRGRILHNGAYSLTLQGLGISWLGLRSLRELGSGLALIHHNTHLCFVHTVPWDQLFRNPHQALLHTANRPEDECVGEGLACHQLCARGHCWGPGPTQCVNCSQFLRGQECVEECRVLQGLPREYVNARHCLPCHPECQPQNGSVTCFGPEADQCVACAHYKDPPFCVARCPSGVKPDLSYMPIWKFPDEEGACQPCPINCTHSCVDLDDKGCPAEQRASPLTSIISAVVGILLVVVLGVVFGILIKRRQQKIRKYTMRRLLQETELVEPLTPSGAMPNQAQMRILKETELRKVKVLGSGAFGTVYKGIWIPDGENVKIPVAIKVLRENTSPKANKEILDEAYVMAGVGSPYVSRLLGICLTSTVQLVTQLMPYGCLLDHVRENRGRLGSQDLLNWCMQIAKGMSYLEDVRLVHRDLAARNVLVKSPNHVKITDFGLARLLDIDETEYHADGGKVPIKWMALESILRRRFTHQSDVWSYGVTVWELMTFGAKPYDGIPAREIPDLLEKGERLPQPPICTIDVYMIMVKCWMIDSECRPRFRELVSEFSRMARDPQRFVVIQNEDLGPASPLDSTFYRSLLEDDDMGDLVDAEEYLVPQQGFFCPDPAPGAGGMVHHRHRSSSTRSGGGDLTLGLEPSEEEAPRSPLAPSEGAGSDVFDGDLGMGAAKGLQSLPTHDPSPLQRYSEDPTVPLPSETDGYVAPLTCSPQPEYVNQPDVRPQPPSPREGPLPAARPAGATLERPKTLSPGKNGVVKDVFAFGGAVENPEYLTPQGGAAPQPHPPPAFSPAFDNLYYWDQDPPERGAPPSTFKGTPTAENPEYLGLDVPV
HER4, sequence (Q15303 26-1308): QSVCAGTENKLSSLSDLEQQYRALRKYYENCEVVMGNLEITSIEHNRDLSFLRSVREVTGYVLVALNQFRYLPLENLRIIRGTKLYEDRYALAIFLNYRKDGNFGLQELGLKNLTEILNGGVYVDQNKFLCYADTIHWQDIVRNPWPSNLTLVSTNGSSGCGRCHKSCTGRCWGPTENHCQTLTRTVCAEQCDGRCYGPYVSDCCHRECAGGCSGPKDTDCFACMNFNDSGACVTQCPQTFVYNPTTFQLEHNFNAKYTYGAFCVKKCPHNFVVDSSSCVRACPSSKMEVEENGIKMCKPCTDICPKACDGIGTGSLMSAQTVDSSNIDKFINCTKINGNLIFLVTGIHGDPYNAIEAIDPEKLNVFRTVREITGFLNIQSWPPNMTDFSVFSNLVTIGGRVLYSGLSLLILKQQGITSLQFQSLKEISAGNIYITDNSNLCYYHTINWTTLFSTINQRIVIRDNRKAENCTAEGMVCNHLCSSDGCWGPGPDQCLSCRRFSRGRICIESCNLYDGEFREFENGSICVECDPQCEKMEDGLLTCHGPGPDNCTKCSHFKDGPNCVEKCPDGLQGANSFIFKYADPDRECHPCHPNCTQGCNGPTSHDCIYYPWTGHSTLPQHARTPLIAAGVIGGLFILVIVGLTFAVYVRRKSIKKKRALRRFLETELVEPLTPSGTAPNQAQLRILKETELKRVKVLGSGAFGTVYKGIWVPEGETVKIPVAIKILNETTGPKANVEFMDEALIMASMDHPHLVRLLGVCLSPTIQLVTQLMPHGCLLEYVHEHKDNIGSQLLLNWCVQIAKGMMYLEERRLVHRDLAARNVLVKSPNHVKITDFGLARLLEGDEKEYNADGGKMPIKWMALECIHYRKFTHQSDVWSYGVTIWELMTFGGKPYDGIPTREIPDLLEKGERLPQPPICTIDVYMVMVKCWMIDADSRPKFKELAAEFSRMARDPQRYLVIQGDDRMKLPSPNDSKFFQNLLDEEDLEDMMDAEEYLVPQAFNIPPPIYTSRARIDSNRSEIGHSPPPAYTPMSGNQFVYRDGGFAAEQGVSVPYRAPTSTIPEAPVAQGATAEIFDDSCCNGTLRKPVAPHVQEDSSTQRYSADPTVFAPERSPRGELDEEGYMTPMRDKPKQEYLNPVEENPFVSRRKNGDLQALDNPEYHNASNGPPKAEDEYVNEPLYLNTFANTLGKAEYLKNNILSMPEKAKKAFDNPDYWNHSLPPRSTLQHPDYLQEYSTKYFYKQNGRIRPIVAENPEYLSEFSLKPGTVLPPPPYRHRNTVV

For `CCOc1cc2ncc(C#N)c(Nc3ccc(OCc4ccccn4)c(Cl)c3)c2cc1NC(=O)/C=C/CN(C)C` [Neratinib], the “binding to HER2” value [1] is given as “irreversibly binds”, the “binding to HER4” value (HER4) is given as “irreversibly binds” and the “EGFR and HER2 autophosphorylation, downstream MAPK and AKT signaling” value [2] is given as “reduces”. The “antitumor activity in carcinoma cell lines” value [3] was “antitumor activity” and the “tumor growth in mouse xenograft models” value [4] was “inhibited tumor growth”.

In the case of `CC(C)Cc1ccc(C(C)C(=O)O)cc1` (stereo not drawn) [Ibuprofen], the “Measured or Calculated pKas (first value)” value [5] is listed as 4.51.

In the case of `CC(=O)Nc1ccc(OCC(O)CNC(C)C)cc1` (stereo not drawn) [Practolol], the “Measured or Calculated pKas (first value)” value [5] is given as 9.41.

For `CC(C)NCC(O)COc1cccc2ccccc12` (stereo not drawn) [Propranolol], the “Measured or Calculated pKas (first value)” value [5] is listed as 9.49 ± 0.2.

In the case of `CC(=O)NS(=O)(=O)c1ccc(N)cc1` [Sulfacetamide], the “Measured or Calculated pKas (first value)” value [5] is listed as 1.95 ± 0.11 and the “Measured or Calculated pKas (second value)” value [5] is listed as 5.30 ± 0.05.

In the case of `CC1(C)S[C@@H]2[C@H](NC(=O)[C@H](N)c3ccc(O)cc3)C(=O)N2[C@H]1C(=O)O` [Amoxicillin], the “Measured or Calculated pKas (first value)” value [5] is listed as 3.39 and the “Measured or Calculated pKas (second value)” value [5] is listed as 6.71.

For `CC(C)(C)NC[C@H](O)COc1nsnc1N1CCOCC1` [Timolol], the “Measured or Calculated pKas (first value)” value [5] is listed as 9.34.

In the case of `CCN(CC)CCOC(=O)c1ccc(N)cc1` [Procaine], the “Measured or Calculated pKas (first value)” value [5] is listed as 2.28 ± 0.08 and the “Measured or Calculated pKas (second value)” value [5] is listed as 9.02 ± 0.01.

For `CN1CCN(c2cc3c(cc2F)c(=O)c(C(=O)O)cn3-c2ccc(F)cc2)CC1` [Difloxacin], the “Measured or Calculated pKas (first value)” value [5] is given as 5.66 ± 0.04 and the “Measured or Calculated pKas (second value)” value [5] is given as 7.24 ± 0.06.

In the case of `CCN1CCN(c2cc3c(cc2F)c(=O)c(C(=O)O)cn3C2CC2)CC1` [Enrofloxacin], the “Measured or Calculated pKas (first value)” value [5] is given as 5.88 ± 0.03 and the “Measured or Calculated pKas (second value)” value [5] is given as 7.74 ± 0.03.

For `O=C(O)Cc1ccccc1Nc1c(Cl)cccc1Cl` [Diclofenac], the “Measured or Calculated pKas (first value)” value [5] is given as 4.16.

In the case of `CN(C)[C@@H]1C(O)=C(C(N)=O)C(=O)[C@@]2(O)C(O)=C3C(=O)c4c(O)ccc(Cl)c4[C@@H](O)[C@H]3C[C@@H]12` [Demeclocycline], the “Measured or Calculated pKas (first value)” value [5] is given as 3.37 ± 0.30 and the “Measured or Calculated pKas (second value)” value [5] is given as 7.36 ± 0.03.

For `Nc1ccc(S(=O)(=O)Nc2ccc(Cl)nn2)cc1` [Sulfachloropyridazine], the “Measured or Calculated pKas (first value)” value [5] is listed as 1.87 ± 0.30 and the “Measured or Calculated pKas (second value)” value [5] is listed as 5.45 ± 0.06.

For `O=C(O)c1cn(-c2ccc(F)cc2)c2cc(N3CCNCC3)c(F)cc2c1=O` [Sarafloxacin], the “Measured or Calculated pKas (first value)” value [5] is listed as 5.62 ± 0.08 and the “Measured or Calculated pKas (second value)” value [5] is listed as 8.18 ± 0.09.

For `C=CCOc1ccccc1OCC(O)CNC(C)C` (stereo not drawn) [Oxprenolol], the “Measured or Calculated pKas (first value)” value [5] is listed as 9.62.

In the case of `CN1CCN(c2c(F)cc3c(=O)c(C(=O)O)cn(CCF)c3c2F)CC1` [Fleroxacin], the “Measured or Calculated pKas (first value)” value [5] is given as 5.46 and the “Measured or Calculated pKas (second value)” value [5] is given as 8.00.

In the case of `[H]/N=C(/N)NS(=O)(=O)c1ccc(N)cc1` [Sulfaguanidine], the “Measured or Calculated pKas (first value)” value [5] is listed as 1.55 and the “Measured or Calculated pKas (second value)” value [5] is listed as 11.24.

For `CN(C)[C@@H]1C(O)=C(C(N)=O)C(=O)[C@@]2(O)C(O)=C3C(=O)c4c(O)cccc4[C@@](C)(O)[C@H]3[C@H](O)[C@@H]12` [Oxytetracycline], the “Measured or Calculated pKas (first value)” value [5] is given as 3.04 and the “Measured or Calculated pKas (second value)” value [5] is given as 8.00.

For `Nc1ccc(S(=O)(=O)Nc2ncccn2)cc1` [Sulfadiazine], the “Measured or Calculated pKas (first value)” value [5] is given as 2.10 and the “Measured or Calculated pKas (second value)” value [5] is given as 6.28.

For `CC(CCc1ccccc1)NCC(O)c1ccc(O)c(C(N)=O)c1` (stereo not drawn) [Labetalol], the “Measured or Calculated pKas (first value)” value [5] is listed as 7.35.

In the case of `C[C@H]1c2cccc(O)c2C(=O)C2=C(O)[C@]3(O)C(=O)C(C(N)=O)=C(O)[C@@H](N(C)C)[C@@H]3[C@@H](O)[C@@H]21` [Doxycycline], the “Measured or Calculated pKas (first value)” value [5] is given as 3.02 ± 0.30 and the “Measured or Calculated pKas (second value)” value [5] is given as 7.97 ± 0.15.

For `CCC(C(=O)O)c1ccc(CC(C)C)cc1` (stereo not drawn) [Butibufen], the “Measured or Calculated pKas (first value)” value [5] is given as 4.64.

For `CCn1cc(C(=O)O)c(=O)c2cc(F)c(N3CCNCC3)nc21` [Enoxacin], the “Measured or Calculated pKas (first value)” value [5] is given as 5.05 ± 0.08 and the “Measured or Calculated pKas (second value)” value [5] is given as 6.25 ± 0.05.

In the case of `COc1ccc2[nH]c([S+]([O-])Cc3ncc(C)c(OC)c3C)nc2c1` (stereo not drawn) [Omeprazole], the “Measured or Calculated pKas (first value)” value [5] is listed as 4.14 and the “Measured or Calculated pKas (second value)” value [5] is listed as 8.90.

For `CC[C@H]1OC(=O)C[C@@H](O)[C@H](C)[C@@H](O[C@@H]2O[C@H](C)[C@@H](O[C@H]3C[C@@](C)(O)[C@@H](O)[C@H](C)O3)[C@H](N(C)C)[C@H]2O)[C@@H](CC=O)C[C@@H](C)C(=O)/C=C/C(C)=C/[C@@H]1CO[C@@H]1O[C@H](C)[C@@H](O)[C@@H](OC)[C@H]1OC` [Tylosin], the “Measured or Calculated pKas (first value)” value [5] is listed as 3.31 ± 0.30 and the “Measured or Calculated pKas (second value)” value [5] is listed as 7.50 ± 0.13.

For `COc1cc2ncnc(Nc3ccc(F)c(Cl)c3)c2cc1OCCCN1CCOCC1` [Gefitinib], the “Measured or Calculated pKas (first value)” value [5] is listed as 7.2.

In the case of `CCn1cc(C(=O)O)c(=O)c2cnc(N3CCNCC3)nc21` [Pipemidic acid], the “Measured or Calculated pKas (first value)” value [5] is listed as 5.42 ± 0.05 and the “Measured or Calculated pKas (second value)” value [5] is listed as 8.18 ± 0.09.

In the case of `O=C(O)CCC(=O)c1ccc(-c2ccccc2)cc1` [Fenbufen], the “Measured or Calculated pKas (first value)” value [5] is listed as 4.56.

For `CC(C(=O)O)c1ccc2c(c1)[nH]c1ccc(Cl)cc12` (stereo not drawn) [Carprofen], the “Measured or Calculated pKas (first value)” value [5] is given as 4.63.

In the case of `C=C1c2c(Cl)ccc(O)c2C(=O)C2=C(O)[C@]3(O)C(=O)C(C(N)=O)=C(O)[C@@H](N(C)C)[C@@H]3[C@@H](O)[C@H]12` [Meclocycline], the “Measured or Calculated pKas (first value)” value [5] is listed as 4.05 ± 0.30 and the “Measured or Calculated pKas (second value)” value [5] is listed as 6.87 ± 0.39.

In the case of `CC[C@H]1OC(=O)[C@H](C)[C@@H](O[C@H]2C[C@@](C)(OC)[C@@H](O)[C@H](C)O2)[C@H](C)[C@@H](O[C@@H]2O[C@H](C)C[C@H](N(C)C)[C@H]2O)[C@](C)(OC)C[C@@H](C)C(=O)[C@H](C)[C@@H](O)[C@]1(C)O` [Clarithromycin], the “Measured or Calculated pKas (first value)” value [5] is listed as 7.25.

For `COc1cc(Cc2cnc(N)nc2N)cc(OC)c1OC` [Trimethoprim], the “Measured or Calculated pKas (first value)” value [5] is given as 3.23 ± 0.30 and the “Measured or Calculated pKas (second value)” value [5] is given as 6.76 ± 0.12.

In the case of `Nc1ccc(S(=O)(=O)Nc2nccs2)cc1` [Sulfathiazole], the “Measured or Calculated pKas (first value)” value [5] is given as 2.08 and the “Measured or Calculated pKas (second value)” value [5] is given as 7.07.

For `CC[C@H]1OC(=O)[C@H](C)[C@@H](O[C@H]2C[C@@](C)(OC)[C@@H](O)[C@H](C)O2)[C@H](C)[C@@H](O[C@@H]2O[C@H](C)C[C@H](N(C)C)[C@H]2O)[C@](C)(O)C[C@@H](C)CN(C)[C@H](C)[C@@H](O)[C@]1(C)O` [Azithromycin], the “Measured or Calculated pKas (first value)” value [5] is given as 7.34.

In the case of `Cc1nnc(NS(=O)(=O)c2ccc(N)cc2)s1` [Sulfamethizole], the “Measured or Calculated pKas (first value)” value [5] is given as 1.86 ± 0.30 and the “Measured or Calculated pKas (second value)” value [5] is given as 5.29 ± 0.04.

In the case of `Cc1cc(C)nc(NS(=O)(=O)c2ccc(N)cc2)n1` [Sulfamethazine], the “Measured or Calculated pKas (first value)” value [5] is given as 2.28 and the “Measured or Calculated pKas (second value)” value [5] is given as 7.42.

For `C#Cc1cccc(Nc2ncnc3cc(OCCOC)c(OCCOC)cc23)c1` [Erlotinib], the “Measured or Calculated pKas (first value)” value [5] is listed as 5.4.

In the case of `CN1CCN(c2c(F)cc3c(=O)c(C(=O)O)cn4c3c2OCN4C)CC1` [Marbofloxacin], the “Measured or Calculated pKas (first value)” value [5] is given as 5.69 ± 0.10 and the “Measured or Calculated pKas (second value)” value [5] is given as 8.02 ± 0.20.

For `CN1C[C@@H]2C[C@H]1CN2c1cc2c(cc1F)c(=O)c(C(=O)O)cn2C1CC1` [Danofloxacin], the “Measured or Calculated pKas (first value)” value [5] is listed as 6.07 ± 0.06 and the “Measured or Calculated pKas (second value)” value [5] is listed as 8.56 ± 0.07.

For `CC[C@H]1OC(=O)[C@H](C)[C@@H](O[C@H]2C[C@@](C)(OC)[C@@H](O)[C@H](C)O2)[C@H](C)[C@@H](O[C@@H]2O[C@H](C)C[C@H](N(C)C)[C@H]2O)[C@](C)(O)C[C@@H](C)/C(=N\OCOCCOC)[C@H](C)[C@@H](O)[C@]1(C)O` [Roxithromycin], the “Measured or Calculated pKas (first value)” value [5] is given as 9.17 ± 0.30.

In the case of `CC(C(=O)O)c1ccc(-c2ccccc2)c(F)c1` (stereo not drawn) [Flurbiprofen], the “Measured or Calculated pKas (first value)” value [5] is given as 4.35.

For `CN(C)[C@@H]1C(O)=C(C(N)=O)C(=O)[C@@]2(O)C(O)=C3C(=O)c4c(O)ccc(Cl)c4[C@@](C)(O)[C@H]3C[C@@H]12` [Chlortetracycline], the “Measured or Calculated pKas (first value)” value [5] is given as 3.33 ± 0.30 and the “Measured or Calculated pKas (second value)” value [5] is given as 7.55 ± 0.02.

In the case of `CC1COc2c(N3CCN(C)CC3)c(F)cc3c(=O)c(C(=O)O)cn1c23` (stereo not drawn) [Ofloxacin], the “Measured or Calculated pKas (first value)” value [5] is given as 6.22 ± 0.05 and the “Measured or Calculated pKas (second value)” value [5] is given as 7.81 ± 0.08.

For `Cc1ccnc(NS(=O)(=O)c2ccc(N)cc2)n1` [Sulfamerazine], the “Measured or Calculated pKas (first value)” value [5] is listed as 2.17 and the “Measured or Calculated pKas (second value)” value [5] is listed as 6.77.
